From US8124359B2, “Use of additives for the reduction of non-specific binding in assays” (Aokin AG, priority 2006, dated 2012)
Where a name gives a salt, the structure may show the parent alone.

Legend:
anti-thyroxine [1] = test: Velocity of the reaction between F-thyroxine and anti-thyroxine in the presence of BSA (Examples 8-16); type: binding; conditions: BSA 0.1 μM, increasing additive concentrations
Experimental: (§1) The buffer and stock solutions described in Example 1 and the measurement methodology described in Example 2 were used.
• Fluorescein-Thyroxine, 1 nM • Anti-Thyroxine (1:300) • PBS with 5% 2-propanol • BSA 0.1 μM • Sodium benzoate in different concentrations
• Fluorescein-Thyroxine, 1 nM • Anti-Thyroxine (1:300) • PBS with 5% 2-propanol • BSA 0.1 μM • Sodium p-toluene sulfonate in different concentrations
• Fluorescein-Thyroxine, 1 nM • Anti-Thyroxine (1:300) • PBS with 4.75% 2-propanol • BSA 0.1 μM • Potassium benzoate in different concentrations
• Fluorescein-Thyroxine, 1 nM • Anti-Thyroxine (1:300) • PBS with 4.75% 2-propanol • BSA 0.1 μM • Sodium chloroacetate in different concentrations
• Fluorescein-Thyroxine, 1 nM • Anti-Thyroxine (1:300) • PBS with 4.75% 2-propanol • BSA 0.1 μM • Sodium dichloroacetate in different concentrations
[…]. The buffer and stock solutions described in Example 1 and the measurement methodology described in Example 2 were used.
• Fluorescein-Thyroxine, 1.5 nM • Anti-Thyroxine (1:300) • PBS with 4.75% 2-propanol • BSA 0.1 μM • Sodium Salicylate in different concentrations
• Fluorescein-Thyroxine, 1.5 nM • Anti-Thyroxine (1:300) • PBS with 4.75% 2-propanol • BSA 0.1 μM • N-Hydroxysuccinimide in different concentrations
• Fluorescein-Thyroxine, 1.5 nM • Anti-Thyroxine (1:300) • PBS with 4.75% 2-propanol • BSA 0.1 μM • Sodium Chloride in different concentrations

anti-thyroxine [2] = test: Rate of the reaction between F-thyroxine and anti-thyroxine, with and without serum (Example 6); type: binding; conditions: experiments 6-3 through 6-7: serum, increasing sodium benzoate up to 1.0 M
Experimental: as §1
(§2) • Fluorescein-Thyroxine (1 nM) • Anti-Thyroxine (1:300 dilution) • PBS with 10% 2-propanol • Benzoate in different concentrations • At t=0 s antibody was pipetted into the cuvette. • A 3 ml cuvette was used, the total volume in the cuvette was 2 ml. A small magnetic stirrer was used for mixing
(§3) In example 6, the reactions between F-Thyroxine and Anti-Thyroxine, which were carried out in the presence of serum under different reaction conditions, are compared (FIG. 4). There are seven different amounts of sodium benzoate, between 0 and 1.0 Molar in the cuvette. The reaction was performed in a phosphate buffered saline buffer containing 10% 2-propanol. The table in FIG. 4 lists the two important parameters.

serum components [3] = test: Initial non-specific binding between F-thyroxine and serum components (Example 6); conditions: experiments 6-3 through 6-7: serum, increasing sodium benzoate up to 1.0 M; reduced from 195
Experimental: as §1, §2, §3

anti-thyroxine [4] = test: Velocity of the reaction between Rhodamine-Thyroxine and anti-thyroxine in serum (Example 17); type: binding; conditions: Rox-Thyroxine 1.5 nM, serum 1:500, PBS with 10% 2-propanol, increasing sodium benzoate
Experimental: (§4) The serum was diluted 1:500 in PBS/10% 2-propanol The buffer and stock solutions, as well as the measurement methodology described in Example 5 were used.
(§5) • Rox-Thyroxine, 1.5 nM • Anti-Thyroxine (1:300) • PBS with 10% 2-propanol • Serum 1:500 • Sodium benzoate in different concentrations

anti-thyroxine sera = test: Effect of additive on specific binding of F-thyroxine to anti-thyroxine in the presence of human sera (Example 4); conditions: Buffer 2 (1.0 M sodium benzoate), 50 μl human sera, 20 or 50 μl anti-sera
Experimental: (§6) With reference to FIG. 2, experiments were performed to determine the effects of an additive on specific and non-specific binding. The additive used in the present example was sodium benzoate. The materials described in Example 1 and the measurement methodology described in Example 2 were used. In particular, 50 μl of human sera was added to 3000 μl of Buffer 2 or PBS at pH 7.5 (no additive control) and thoroughly mixed by pipetting for 1 to 10 seconds. To this was added 0 μl of unlabeled thyroxine and 0 μl, 20 μl or 50 μl of anti-sera stock solution. The mixture was thoroughly mixed by pipetting for 1 to 10 seconds. Then, 5 μl of the fluorescein-labeled thyroxine stock solution was added. This was followed by mixing for 1 to 10 seconds by pipetting. Then, d(V−H)/dt measurements were made versus time for between 10 and 600 seconds. This protocol was followed for Experiments 6-9 in Table 2.

anti-thyroxine [5] = test: Velocity of the reaction between F-thyroxine and anti-thyroxine in the absence of non-specific binding components (Example 7); conditions: sodium benzoate increased to 1.0 molar; no serum or BSA; PBS with 5% 2-propanol, F-thyroxine 1 nM
Experimental: as §1
• Fluorescein-thyroxine, 1 nM • Anti-Thyroxine (1:300) • PBS with 5% 2-propanol • Sodium Benzoate in different concentrations

human sera = test: Effect of additive on non-specific binding of F-thyroxine in human sera (Example 4); conditions: Buffer 2 (1.0 M sodium benzoate), 50 μl human sera
Experimental: as §6

serum components [6] = test: Non-specific binding of Rhodamine-Thyroxine to serum components (Example 17); conditions: Rox-Thyroxine 1.5 nM, serum 1:500, PBS with 10% 2-propanol, sodium benzoate in different concentrations
Experimental: as §4, §5

anti-thyroxine [7] = test: Kinetic curve, rhodamine-labeled thyroxine/anti-thyroxine system in 0.5 M sodium benzoate with 5% isopropanol (Example 5); type: binding
Experimental: The protocol used is described below. The additive was sodium benzoate combined with an organic solvent (5% isopropanol). • 1. Use clean glassware, washed with isopropanol. • 2. Make a 0.5 M solution of sodium benzoate. • 3. Make a solution of 5% isopropanol in 0.5 M sodium benzoate (i.e., 2.5 ml 2-propanol in 47.5 mL 0.5 M aqueous sodium benzoate). This will be named BUFFER. • 4. […] 600 μl Buffer added to 1 mL curvette. The absorbance spectrum is measured using a UV-VIS spectrophotometer, 400 nm to 800 nm. This spectrum is used to define the absorbance of the background as zero and to control that it is actually zero. • 6. […] Measure the absorbance UV-VIS, 400 nm to 800 nm. […] Using a rotating polarometer with a 75 watt Xenon short-arc lamp. The rotating polarizer has three channels: Polarization (P), Total Intensity (V+H), and V−H. • 8. […] Measure P, V+H and V−H after short mixing and 30 second equilibration. […] Add 10 μl. Antibody solution (anti-thyroxine in PBS, dilution unknown, probably 5 mg in 1000 μl PBS and further diluted 1:10 in PBS). New volume is 3017 μl. Measure P, V+H and V−H after short mixing.

[8] = test system: polyclonal anti-thyroxine sera; test: Fluorescence polarization kinetic measurement, F-thyroxine/anti-thyroxine system (Example 3); type: binding; conditions: Experiment 5: unlabeled thyroxine 0-20 μl, antiserum 20 μl, Buffer 1 (0.5 M sodium benzoate)
Experimental: An initial stock solution of anti-thyroxine sera was prepared. In particular, 1 ml of polyclonal anti-thyroxine sera containing 10 mg/ml IgG (Sigma) was diluted 1:5 in PBS buffer, pH 7.5. The final concentration of IgG in the stock solution was about 2 mg/ml.
An initial stock solution of fluorescein-labeled analyte (F-thyroxine) was prepared. Fluorescein-labeled thyroxine at 1248 g/mol in a lyophilized form was obtained from emp Biotech GmbH. First, 5 mg (4×10^−6 moles) of F-thyroxine was diluted to 10 ml in PBS to get a 4.1×10^−4 M solution of F-thyroxine. This solution was then further diluted 100-fold in PBS. The final concentration of F-thyroxine in the stock solution was about 4.1×10^−6 M.
The following is a protocol useful for performing a fluorescein polarization assay of the present invention. All steps are performed at ambient temperature. […] Pipette the mixture formed in step 5 up and down for 1 to 10 seconds and begin measuring polarization (P), Polarized Fluorescence Intensity Difference (V−H) or quenching (V+H total intensity) versus time for between 10 and 7200 seconds after end of mixing in a direct readout polarometer or between 0.1 and 7200 seconds after end of mixing with a stopped-flow polarometer. • 7. […] Against a standard curve, an unknown amount of thyroxine can be measured by comparison of initial rate measurement (speed of reaction) of unknown with the standard curve. […]

[9] = PBS with 4.75% 2-propanol, F-thyroxine 1 nM
[10] = PBS with 5% 2-propanol, F-thyroxine 1 nM
[11] = PBS with 4.75% 2-propanol, F-thyroxine 1.5 nM

Compound: O=C([O-])CCl.[Na+] [sodium chloroacetate]
- rate of the antibody reaction (anti-thyroxine [1]; [9]): substantially slowed

Compound: O=C([O-])c1ccccc1.[Na+] [sodium benzoate]
- reaction rate relative to its value at zero additive (anti-thyroxine [2]): about 30%
- rate of change of P at t=5 s (anti-thyroxine [2]; PBS with 10% 2-propanol): 3.2 mP/s
- rate of the antibody reaction (anti-thyroxine [1]; [10]): substantially slowed
- polarization value before the addition of antibody (t=0) (serum components [3]): 100 mP
- rate of the reaction (anti-thyroxine [4]): substantially slowed
- effect on specific binding (anti-thyroxine sera): does not inhibit specific binding
- reaction rate between F-thyroxine and antibody (anti-thyroxine [5]): slowed dramatically
- effect on non-specific binding (human sera): inhibits non-specific binding
- non-specific binding due to the presence of serum components (serum components [6]): substantially reduced

Compound: O=C1CCC(=O)N1O [N-hydroxysuccinimide]
- rate of the antibody reaction (anti-thyroxine [1]; [11]): substantially slowed

Compound: [Cl-].[Na+] [sodium chloride]
- rate of the antibody reaction (anti-thyroxine [1]; [11]): not substantially slowed

Compound: O=C([O-])C(Cl)Cl.[Na+] [sodium dichloroacetate]
- rate of the antibody reaction (anti-thyroxine [1]; [9]): substantially slowed

Compound: Cc1ccc(S(=O)(=O)O)cc1.[Na] [sodium p-tolulene sulfonate, sodium p-toluene sulfonate]
- rate of the antibody reaction (anti-thyroxine [1]; [10]): substantially slowed

Compound: N=C(N)N [guanidine hydrochloride]
- rate of the antibody reaction (anti-thyroxine [1]; [10]): substantially slowed

Compound: 5-carboxy-X-rhodamine-thyroxine [ROX-T4]
- values of P, V−H and V+H over the 600 second time course (anti-thyroxine [7]; 0.5 M sodium benzoate, 5% isopropanol): increase
- V − H (anti-thyroxine [7]; 10 s after antibody): 660
- V − H (anti-thyroxine [7]; 13 s after antibody): 860
- V − H (anti-thyroxine [7]; 18 s after antibody): 936
- V − H (anti-thyroxine [7]; 20 s after antibody): 1006
- V − H (anti-thyroxine [7]; 26 s after antibody): 1130
- V − H (anti-thyroxine [7]; 30 s after antibody): 1175
- V − H (anti-thyroxine [7]; 33 s after antibody): 1200
- V − H (anti-thyroxine [7]; 44 s after antibody): 1259
- V − H (anti-thyroxine [7]; 49 s after antibody): 1280
- V − H (anti-thyroxine [7]; 53 s after antibody): 1290
- P (mP) (anti-thyroxine [7]; 62 s after antibody): 392 mP
- P (mP) (anti-thyroxine [7]; 70 s after antibody): 395 mP
- V − H (anti-thyroxine [7]; 78 s after antibody): 1345
- V + H (anti-thyroxine [7]; 83 s after antibody): 3375
- P (mP) (anti-thyroxine [7]; 95 s after antibody): 397 mP
- P (mP) (anti-thyroxine [7]; 600 s after antibody): 398 mP
- V + H (anti-thyroxine [7]; 600 s after antibody): 3320
- V − H (anti-thyroxine [7]; 600 s after antibody): 1340
- P (mP) (anti-thyroxine [7]; before antibody, time 0 s): 75 mP
- V + H (anti-thyroxine [7]; before antibody, time 0 s): 2291
- V − H (anti-thyroxine [7]; before antibody, time 0 s): 178

Compound: O=C([O-])c1ccccc1O.[Na+] [sodium salicylate]
- rate of the antibody reaction (anti-thyroxine [1]; [11]): substantially slowed

Compound: O=C([O-])c1ccccc1.[K+] [potassium benzoate]
- rate of the antibody reaction (anti-thyroxine [1]; [9]): substantially slowed

Compound: N[C@@H](Cc1cc(I)c(Oc2cc(I)c(O)c(I)c2)c(I)c1)C(=O)O [thyroxine]
- competitive inhibition of the binding of F-thyroxine to its specific antibody [8]: inhibition of the binding of F-thyroxine to its specific antibody by unlabeled thyroxine occurred
